Assay [1] deals with peripheral neuropathy caused by vincristine. Put plainly: Treatment of peripheral neuropathy caused by vincristine (Example 1). It counts as in vivo, human. Conditions: patient with endometrial carcinoma on vincristine 1.4 mg/m^2 weekly; 5 mg orally twice a day. Here is the method:
A patient with endometrial carcinoma is given an intravenous bolus injection of vincristine at a dose of 1.4 mg/m^2 weekly. The toxic effects of vincristine cause sensory loss in the fingers and toes, a loss of the ankle jerk reflex, weakness and postural hypotension. […] During this time, therapy with vincristine is continued and evaluations of both tumor response and toxic side effects are carried out by a physician on a weekly basis. After continued therapy, symptoms associated with peripheral neuropathy subside. At this point, the dosage of vincristine is increased to 1.8 mg/m^2 and the process is continued.

A further assay has as its system spinal motor neurons. Conditions: rat; Iwasaki et al. 1994; cited from earlier work.
A further assay relates to retinal ganglion cells. The settings on record: rat optic nerve crush model; Buys et al. 1994; cited from earlier work.
The subject of assay [2] is cultured spinal cord neuron. The settings on record: Iwasaki et al. 1994; cited from earlier work.
In assay [3] the test system is axotomized rat facial motor neurons. The settings on record: Salo et al. 1992; cited from earlier work.
The subject of another assay is CNS neurons. The settings on record: toxins such as MPP+, kainic acid or DSP-4; cited from earlier work.

Structures can show the parent of a compound that is named as a salt.

As for `C#CCN(C)[C@H](C)Cc1ccccc1` [selegiline hydrochloride], the “symptoms associated with peripheral neuropathy” value in assay [1] is “subside”.

On to `C#CCN(C)C(C)Cc1ccccc1` (stereo not drawn) [selegiline, R-(−)-N-methyl-N-(prop-2-ynyl)-2-aminophenylpropane], for which, in the assay on spinal motor neurons, the “effect on axotomy-induced cell death in spinal motor neurons” value is “neuroprotective effect”. Besides, the “survival of retinal ganglion cells at risk of undergoing apoptosis” value with retinal ganglion cells is “increase the survival”. Besides, the neurite outgrowth result in assay [2] was “enhance neurite outgrowth”. For the same compound, the “rescue of axotomized facial motor neurons” value in assay [3] was “capable of rescuing”. Also, the “survival of CNS neurons after exposure to chemical toxins” value in the assay with CNS neurons is on record as “increase the survival”.

Values taken from US6743824B2 (Somerset Pharmaceuticals, Inc., priority 1996, dated 2004).
